We go through two compounds from publication PMC5358875 (Journal of the American Chemical Society, 2017).

Data set [1] deals with T1, TNKS2 ARC4 (Homo sapiens, UniProt Q9H2K2).
T1 construct: GST (cleaved yes); made in house; host or cells: E. coli C41(DE3)
T1 sequence (Q9H2K2 488-649): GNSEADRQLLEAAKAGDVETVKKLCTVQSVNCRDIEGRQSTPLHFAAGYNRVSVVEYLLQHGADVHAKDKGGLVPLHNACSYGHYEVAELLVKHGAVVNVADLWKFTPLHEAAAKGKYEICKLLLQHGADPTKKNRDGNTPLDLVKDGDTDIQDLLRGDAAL
Nature of the data set: Direct fluorescence polarization, TNKS2 ARC4. The data set is classed as binding. Particulars: TAMRA-labeled peptides; n.d. = not detectable; read-out: Kd TNKS2 ARC4 (Direct FP). The protocol:
Fluorescence polarization (FP) assays were performed in 96-well half area black microplates (Corning) on a CLARIOstar microplate reader (BMG labtech) using excitation filter 540–20 nm, dichroic mirror LP 566 nm, and emission filter 590–20 nm. All peptides were dissolved in water as stock solutions. For direct FP assays, the stock concentrations of the TAMRA-labeled peptides were determined based on the 5-TAMRA absorbance at 556 nm (extinction coefficient ε = 89,000 M^–1 cm^–1) measured on a NanoDrop 2000 (Thermo Scientific) and verified by amino acid analysis (Department of Biochemistry, University of Cambridge). TNKS2 ARC4 (488–649) or TNKS1 ARC2–3 (315–662) was diluted 2-fold serially in the assay buffer (50 mM HEPES pH 7.5, 300 mM NaCl, 2 mM DTT, 0.05% (v/v) Tween 20) for a 12-point titration curve in triplicate. The diluted TAMRA-labeled peptide (20 nM, 50 μL) was mixed with the serially diluted TNKS2 ARC4 or TNKS1 ARC2–3 (40–0 μM, 50 μL) in each well and incubated for 30 min at 25 °C before the measurement. Data were analyzed on GraphPad Prism 5.0, and the dissociation constant, Kd, was determined using the following equation assuming the ratio between the concentration of the bound and that of the total TAMRA-labeled peptide is proportional to the fluorescence polarization [drawing 1] where FP is the fluorescence polarization, B is the minimum FP, T is the maximum FP, L0 is the total concentration of TAMRA-labeled peptide, P0 is the total concentration of protein, and Kd is the dissociation constant.
On the technique in general: Fluorescence polarisation rises when a labelled molecule tumbles more slowly, as on binding a larger partner.

The next data set has as its target T2, AspN protease (Elizabethkingia meningoseptica, UniProt Q47899).
T2 sequence (Q47899 92-443): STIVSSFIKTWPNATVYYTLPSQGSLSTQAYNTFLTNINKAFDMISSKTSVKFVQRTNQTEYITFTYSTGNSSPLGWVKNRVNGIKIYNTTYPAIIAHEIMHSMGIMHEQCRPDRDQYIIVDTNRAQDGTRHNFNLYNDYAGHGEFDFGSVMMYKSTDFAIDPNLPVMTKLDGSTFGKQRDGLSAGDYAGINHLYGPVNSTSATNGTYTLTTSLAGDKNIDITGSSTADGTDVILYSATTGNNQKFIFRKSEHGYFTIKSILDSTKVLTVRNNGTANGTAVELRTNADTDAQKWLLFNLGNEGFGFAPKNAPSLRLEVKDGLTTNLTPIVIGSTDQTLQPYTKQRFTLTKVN
Nature of the data set: in vitro. To be noted: isolated enzyme.

The target in data set [2] is T1, TNKS2 ARC4. Nature of the data set: Isothermal titration calorimetry, TNKS2 ARC4. Type of data set: binding. Particulars: unlabeled peptides and Axin proteins. The protocol: (§1) All ITC experiments were performed on a MicroCal iTC200 (GE Healthcare) at 25 °C. TNKS2 ARC4 (488–649), TNKS1 ARC2–3 (315–662), and Axin1 fragments were dialyzed overnight in PBS and 0.5 mM TCEP. Unlabeled peptides were used in the experiments. The peptide was diluted from the stock solution using the same dialysis buffer, and the effect of buffer dilution was accounted for when preparing TNKS samples. TNKS2 ARC4 (160–280 μM) or TNKS1 ARC2–3 (60–150 μM) was titrated into the sample cell containing the peptide (5–15 μM) or Axin1 fragments (8–12 μM) with an initial injection of 0.2 μL over 0.4 s followed by 19 injections of 2 μL over 4 s with a spacing of 60 s, except for TNKS2 ARC4 and Axin1 fragments for which the spacing was 70 s. Control experiments were performed using the same settings as above except that the cell was filled with dialysis buffer. Data were fitted with nonlinear regression using a one-site binding model from Origin 7.0 (MicroCal, Inc.).[90]
For orientation: Isothermal titration calorimetry measures the heat released or taken up as one component is titrated into another.

The target of a further data set is T3, TNKS1 ARC2-3 (Homo sapiens, UniProt O95271).
T3 construct: His6 (cleaved yes); made in house; host or cells: E. coli C41(DE3)
T3 sequence (O95271 315-662): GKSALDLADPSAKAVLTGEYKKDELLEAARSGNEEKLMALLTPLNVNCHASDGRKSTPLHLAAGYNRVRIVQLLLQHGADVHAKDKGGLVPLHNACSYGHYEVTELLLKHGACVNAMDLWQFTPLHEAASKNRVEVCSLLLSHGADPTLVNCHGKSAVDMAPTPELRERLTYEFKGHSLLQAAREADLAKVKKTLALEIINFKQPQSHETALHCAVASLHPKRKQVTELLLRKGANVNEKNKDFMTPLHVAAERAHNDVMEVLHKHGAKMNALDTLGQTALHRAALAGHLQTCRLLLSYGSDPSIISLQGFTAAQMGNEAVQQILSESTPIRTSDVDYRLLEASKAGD
Nature of the data set: Isothermal titration calorimetry, TNKS1 ARC2-3. Particulars: unlabeled peptides and Axin proteins. Type of data set: binding. As for the experimental part:
as §1

For data set [3], the system named is Wnt-activated HEK 293T cells. Nature of the data set: TOPFLASH dual-luciferase reporter assay. The data set is classed as cell-based. Particulars: unlabeled peptides. The protocol:
A dual-luciferase reporter (DLR) assay in Wnt-activated HEK 293T cells was used to determine the ability of the peptides to modulate β-catenin levels and suppress Wnt transcription. […] Treatment of HEK 293T cells with an increasing concentration of unlabeled peptide cp4n2m3c-Antp (containing the penetratin sequence on the linker) led to a dose-dependent decrease in Wnt pathway reporter activity with an IC50 around 50 μM (Figure 8). […] Moreover, treatment with non-cell-penetrating peptides pep1 or cp4n2m3c had no effect on Wnt reporter activity, nor did treatment with cp4n1m3c-Antp (a cell-penetrating version of the non-binding peptide cp4n1m3c) (Table S2), thereby satisfying these specificity controls.
HEK 293T were grown in Dulbecco’s Modified Eagles Medium (DMEM) supplemented with 10% fetal calf serum. Wnt pathway activity was induced by treating cells with 20 mM LiCl (or KCl as control) or conditioned media obtained from L-cells expressing Wnt3A for 6 h. […]
For TOPFLASH reporter assays, 100 ng of TOPFLASH plasmid and 10 ng of CMV-Renilla plasmid (as internal control) were used to transfect cells in 24-well plates. […] Relative luciferase values were obtained from triplicate samples (from two independent experiments) by dividing the firefly luciferase values (from TOPFLASH) by the Renilla luciferase values (from CMV-renilla), and standard deviations were calculated.
For orientation: A reporter such as luciferase makes a cellular process visible.

The Kd is a measure of binding affinity in units of concentration. Usually share remaining stands for the share of the starting amount still present when the sample was taken. For `CN(C)c1ccc2c(c1)Oc1cc(N(C)C)ccc1C21OC(=O)c2cc(C(=O)NCCCCCC(=O)N[C@@H](CCCNC(=N)N)C(=O)N[C@@H](CCC(=O)O)C(=O)N[C@H]3CCn4cc(nn4)CCCc4cn(nn4)CC[C@@H](C(=O)N[C@@H](CCC(=O)O)C(N)=O)NC(=O)CNC(=O)[C@H](CC(=O)O)NC(=O)CNC3=O)ccc21` [T-cp4n2m3], the Kd on TNKS2 ARC4 [1] turned out to be 600 ± 10 nM. The compound also registered a fraction remaining at 4.5 h, 400 μM at AspN protease of about 100%.

Regarding Ac-REAGDGEE-NH2 [pep1], the “Stoichiometry (ITC), TNKS2 ARC4” value at TNKS2 ARC4 [2] amounted to 1.0 ± 0.004. Besides, on TNKS1 ARC2-3, the “Stoichiometry (ITC), TNKS1 ARC2-3” value worked out at 0.9 ± 0.01. In addition, the Kd on TNKS1 ARC2-3 (25 °C, read-out: Kd (nM) to TNKS1 ARC2-3 (ITC)) was 290 ± 30 nM. The “effect on Wnt reporter activity” value in data set [3] is “no effect”.
